Values quoted from earlier work, collected in US20050129759A1, “Sustained release compositions and controlled delivery method” (priority 2003, published 2005).

Settings: not entrapped; stated as typical behaviour

**Q.** Which “stability of free active agent” value does the source give for NC(N)=O.OO [urea peroxide] here?
**A.** very unstable, shock sensitive, and deteriorates very quickly on contact with air humidity
